Patent US6951727B2, “Methods and reagents for quantitation of cell-surface molecule expression on peripheral blood cells” (Becton Dickinson and Company, priority 1998, dated 2005)
Entries after “also recorded” stand apart in the source; their conditions may differ. Where two headings read alike, the source gives them in different places.

What was measured:
[1] = test system: HLA-DR on CD14+ peripheral blood monocytes; assay: Stabilization of HLA-DR-specific fluorescent signal during anti-HLA-DR antibody staining of whole blood, flow cytometry; format: cell-based, human
Protocol: Peripheral blood samples were drawn from normal volunteers.
The time-dependence of the HLA-DR-specific signal detectable by flow cytometry of antibody-stained peripheral blood monocytes was assessed by varying the duration of antibody staining.
The effect of various additives on the stability of HLA-DR-specific fluorescence intensity was tested by including these reagents during the staining step.
Incubation was at room temperature for the times indicated, after which 1 ml of 1× FACS™ Lysing Solution was added and incubation continued for 10 minutes.
Following erythrocyte lysis, the samples were centrifuged at 250×g for 5 minutes, the supernatant removed, the pellet resuspended in 2 ml of PBS+0.5% BSA and recentrifuged. The final pellet was suspended in 0.5 ml of PBS+BSA and analyzed by flow cytometry, as above. Results are plotted in FIG. 2A.
A second experiment, reported in FIG. 2B, was performed similarly, but omitting the post-lysis wash step: following erythrocyte lysis, the samples were centrifuged at 250×g for 5 minutes, the supernatant, containing lysis debris, removed, and the pellet resuspended directly in 0.5 ml of PBS+0.5% BSA. Again, flow cytometric acquisition of at least 2000 monocyte events was performed, and the PE fluorescence intensity of the monocyte population plotted.
To test whether Brefeldin A and monensin would similarly stabilize HLA-DR expression in the flow cytometric assay, an additional series of experiments was performed.
To 50 μl EDTA-anticoagulated whole blood was added 10 μl staining reagent (500 ng of HLA-DR-PE and 63 ng CD14-PerCP/CY5.5 in buffered saline containing gelatin and 0.1% sodium azide); the staining reagent further included the additives noted below. Samples were incubated with staining reagent for the times indicated, after which 1 ml of 1× FACS™ Lysing Solution was added. After incubation with lysing solution for 9.5 to 11.5 minutes, samples were directly analyzed using a FACSCalibur™ brand flow cytometer (BDIS, San Jose, Calif.).
Additives to the staining composition for this latter series of experiments, reported in FIG. 2C, were: (A) nothing (“Control”); (B) 18 mM chloroquine; (C) 0.2 mM Brefeldin A; and (D) 0.013 mM monensin. Final concentrations of additives after 1:6 dilution during staining were: (B) 3 mM chloroquine; (C) 0.034 mM Brefeldin A; and (D) 0.0022mM monensin. […] 212:89-98 (1998).
The data presented in FIG. 2C were acquired immediately after lysis; in contrast to experiments the results of which are presented in FIG. 1, the removal of lysis debris (by centrifugation and aspiration, optionally followed by wash) was omitted.
A further experiment was performed to determine the minimum concentration of chloroquine needed to effect stabilization of HLA-DR expression on the surface of monocytes.
An aliquot of 50 μl peripheral blood was drawn from a healthy volunteer and mixed with 10 μl HLA-DR quantitation reagent (50 μg/ml HLA-DR PE, 6.3 μg/ml CD14 PerCP-Cy5.5, in 10 mM sodium pyrophosphate, 0.15 M NaCl, pH 8). The HLA-DR quantitation reagent further contained chloroquine at 0 mM (control), 6 mM, 12 mM, or 18 mM.
In each experiment, 4 blood samples were stained for each chloroquine level, with one each of the samples stained for 20, 40, 60 or 80 minutes.
At the end of the staining period, the samples were lysed with 1× FACS™ Lysing Solution (BDIS) and analyzed on a FACScalibur Flow Cytometer. Five hundred monocyte events were collected.

[2] = test system: CD11b on human blood cells; assay: Stabilization of CD11b-specific fluorescent signal during antibody staining of whole blood, flow cytometry; format: cell-based; details: 3 mM final concentration, whole blood of three normal donors
Protocol: Blood from three normal adult donors was collected in standard EDTA Vacutainer® tubes and placed directly on ice. Fifty (50) μl of whole blood was transferred to a tube containing 20 μl of a cocktail of CD11b PE and CD45 PerCP antibodies with or without chloroquine, with the chloroquine-containing tubes having a final chloroquine concentration of 3 mM. Blood was stained for the indicated time at room temperature before addition of 1.0 ml FACS lysing reagent (1×). Flow cytometric analysis was performed essentially as described in Examples 1 and 2.

[3] = test system: monocyte HLA-DR expression; details: cited from earlier work
[4] = additive during staining, final concentration 3 mM chloroquine, 0.1% azide, 0.034 mM Brefeldin A, 0.0022 mM monensin, 10-15 to 60 min incubation

## C[C@H]1CCC/C=C/[C@@H]2C[C@H](O)C[C@H]2[C@H](O)/C=C/C(=O)O1 [Brefeldin A]
[1]; [4]
  stabilization of HLA-DR fluorescence signal over incubation time: no significant stabilization

## CCN(CC)CCCC(C)Nc1ccnc2cc(Cl)ccc12 (stereo not shown) [chloroquine]
[1]
  minimum concentration needed to effect HLA-DR stabilization: 2 mM
  stabilization of HLA-DR expression at 1 mM: insufficient to effect stabilization
  stabilization of HLA-DR fluorescence signal over incubation time: reliably stabilized HLA-DR fluorescence; also recorded: stabilizes the HLA-DR fluorescence signal
[2]
  stabilization of CD11b fluorescent signal over staining time: can similarly be stabilized

## CCN(CCO)CCCC(C)Nc1ccnc2cc(Cl)ccc12 (stereo not shown) [hydroxychloroquine]
[1]; experiments not shown
  stabilizing HLA-DR signal compared with chloroquine: equally effective

## CC[C@@]1([C@@H]2O[C@@H]([C@H]3O[C@@](O)(CO)[C@H](C)C[C@@H]3C)C[C@@H]2C)CC[C@H]([C@]2(C)CC[C@]3(C[C@H](O)[C@@H](C)[C@@H]([C@@H](C)[C@@H](OC)[C@H](C)C(=O)O)O3)O2)O1 [monensin]
[1]; [4]
  stabilization of HLA-DR fluorescence signal over incubation time: no significant stabilization

## Gamma interferon: proinflammatory cytokine, major activator of monocytes
[3]; of 10 septic patients with fewer than 30% HLA-DR positive monocytes
  patients showing an increase in monocyte HLA-DR expression within 1 day of treatment: 8
[3]; of 10 septic patients
  patients responding within 2 to 3 days: 2
[3]; septic patients
  TNFα and IL-6 plasma levels during treatment: significant increase
